pEC50: −log10 of the molar value.
Assays:
ΔF508-CFTR [1] = molecular target: T1, ΔF508-CFTR (Homo sapiens, UniProt P13569, DEL508-508); assay: CFTR cell surface levels using HRP-tagged ΔF508-CFTR expressing CFBE cells, intrinsic corrector capacity; format: cell-based; settings: HRP-tagged ΔF508-CFTR CFBE41o- cells, compounds alone (intrinsic corrector capacity), 20 hours at 33° C.; for % Activation: positive control 3 μM corrector; for pEC50: read-out: EC50
T1 construct: host or cells: CFBE41o-, doxycycline-inducible
In short: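 Here the cells express ΔF508-CFTR with horseradish peroxidase inserted in extracellular loop 4, so only rescued channel at the surface gives luminescent signal. Compounds act on their own, 20 h at the reduced temperature of 33 °C; values are percent activity relative to DMSO and a 3 μM corrector.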

ΔF508-CFTR [2] = molecular target: T1, ΔF508-CFTR; assay: CFTR cell surface levels using HRP-tagged ΔF508-CFTR expressing CFBE cells, in the presence of a co-corrector; format: cell-based; settings: HRP-tagged ΔF508-CFTR expressing CFBE cells, in the presence of 3 μM co-corrector; for pEC50: read-out: EC50
In short: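 Cells were seeded with 0.5 μg/mL doxycycline and held 68 h at 37 °C. Test compounds plus 3 μM co-corrector (final 0.1% DMSO) were then added for 20 h at 33 °C. Washed cells received HRP substrate, and luminescence was normalized between DMSO and 3 μM co-corrector controls.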

T1 sequence (P13569 with tags, fused parts or gaps DEL508-508): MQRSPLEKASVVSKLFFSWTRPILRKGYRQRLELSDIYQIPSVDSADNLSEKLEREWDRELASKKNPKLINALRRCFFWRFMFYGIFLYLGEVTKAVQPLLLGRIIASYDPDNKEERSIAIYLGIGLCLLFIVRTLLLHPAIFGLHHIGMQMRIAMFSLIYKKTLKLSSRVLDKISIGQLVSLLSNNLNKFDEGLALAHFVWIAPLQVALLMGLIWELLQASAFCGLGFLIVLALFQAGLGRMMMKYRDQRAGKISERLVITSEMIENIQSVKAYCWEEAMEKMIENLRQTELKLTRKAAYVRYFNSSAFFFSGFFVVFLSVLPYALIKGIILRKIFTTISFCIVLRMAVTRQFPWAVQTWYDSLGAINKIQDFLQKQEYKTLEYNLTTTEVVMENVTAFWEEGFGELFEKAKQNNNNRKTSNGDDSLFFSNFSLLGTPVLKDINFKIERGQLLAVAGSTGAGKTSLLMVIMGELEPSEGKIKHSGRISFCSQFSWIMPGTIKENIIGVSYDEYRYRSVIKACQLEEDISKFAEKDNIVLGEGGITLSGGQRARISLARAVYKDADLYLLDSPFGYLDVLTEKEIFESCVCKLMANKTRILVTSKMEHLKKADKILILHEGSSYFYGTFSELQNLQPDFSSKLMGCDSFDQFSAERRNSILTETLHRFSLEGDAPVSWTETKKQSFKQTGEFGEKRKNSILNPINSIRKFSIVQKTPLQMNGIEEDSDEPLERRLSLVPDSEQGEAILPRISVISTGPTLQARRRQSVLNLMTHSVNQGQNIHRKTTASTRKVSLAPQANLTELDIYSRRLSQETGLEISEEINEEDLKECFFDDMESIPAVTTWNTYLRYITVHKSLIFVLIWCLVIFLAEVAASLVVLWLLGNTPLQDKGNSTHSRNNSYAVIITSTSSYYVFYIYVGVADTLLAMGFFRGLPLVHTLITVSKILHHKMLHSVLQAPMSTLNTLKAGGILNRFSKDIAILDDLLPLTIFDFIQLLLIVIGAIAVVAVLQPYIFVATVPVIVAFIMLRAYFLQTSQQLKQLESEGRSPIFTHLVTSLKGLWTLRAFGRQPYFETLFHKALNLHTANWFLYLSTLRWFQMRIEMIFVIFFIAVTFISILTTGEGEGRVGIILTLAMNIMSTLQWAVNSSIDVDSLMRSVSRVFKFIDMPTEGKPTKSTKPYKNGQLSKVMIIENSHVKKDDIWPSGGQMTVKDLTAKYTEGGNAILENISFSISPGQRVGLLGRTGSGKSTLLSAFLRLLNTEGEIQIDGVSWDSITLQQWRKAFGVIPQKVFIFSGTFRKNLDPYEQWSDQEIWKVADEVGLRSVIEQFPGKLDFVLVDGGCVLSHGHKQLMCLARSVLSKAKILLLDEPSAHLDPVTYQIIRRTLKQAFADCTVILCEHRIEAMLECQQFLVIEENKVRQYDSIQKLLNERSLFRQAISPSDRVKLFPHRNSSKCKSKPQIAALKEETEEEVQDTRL

Row | SMILES | % Activation (ΔF508-CFTR [1]) [%] | pEC50 (ΔF508-CFTR [1]) | % Activation (ΔF508-CFTR [2]) [%] | pEC50 (ΔF508-CFTR [2])
1 | COC1CCN(c2cc(C(=O)O)nc3c2c(C2CCC2)nn3-c2ccccc2)CC1 [compound 358, 3-cyclobutyl-4-(4-methoxypiperidin-1-yl)-1-phenyl-1H-pyrazolo[3,4-b]pyridine-6-carboxylic acid] | 205.07 | 6.39 | 370.47 | 6.69
2 | Cc1cccc(-n2nc(C(C)C)c3c(N4CCC5(CC4)CN(C)C(=O)O5)cc(C(=O)O)nc32)c1 [compound 359, 4-(3-methyl-2-oxo-1-oxa-3,8-diazaspiro[4.5]decan-8-yl)-1-(3-methylphenyl)-3-(propan-2-yl)-1H-pyrazolo[3,4-b]pyridine-6-carboxylic acid] | 142 | 5.69 | 349.55 | 5.66
3 | Cc1cccc(-n2nc(C(C)C)c3c(N4CCC5(CCCCC5)CC4)cc(C(=O)O)nc32)c1 [compound 360, 4-(3-azaspiro[5.5]undecan-3-yl)-1-(3-methylphenyl)-3-(propan-2-yl)-1H-pyrazolo[3,4-b]pyridine-6-carboxylic acid] | 96.335 | 5.93 | 293 | 5.99
4 | CC(C)c1nn(C2CCCCC2)c2nc(C(=O)O)cc(-c3cnn(C(C)C)c3)c12 [compound 361, 1-cyclohexyl-3-(propan-2-yl)-4-[1-(propan-2-yl)-1H-pyrazol-4-yl]-1H-pyrazolo[3,4-b]pyridine-6-carboxylic acid] | 80.015 | 5.81 | 227.65 | 5.94
5 | CC(C)c1nn(C2CCCCC2)c2nc(C(=O)O)cc(-c3cccn3C)c12 [compound 362, 1-cyclohexyl-4-(1-methyl-1H-pyrrol-2-yl)-3-(propan-2-yl)-1H-pyrazolo[3,4-b]pyridine-6-carboxylic acid] | 44.405 | 5.69 | 170.85 | 5.74
6 | CC(C)c1nn(C2CCCCC2)c2nc(C(=O)O)cc(-c3cn[nH]c3)c12 [compound 363, 1-cyclohexyl-3-(propan-2-yl)-4-(1H-pyrazol-4-yl)-1H-pyrazolo[3,4-b]pyridine-6-carboxylic acid] | 56.625 | 5.61 | 187.2 | 5.63
7 | CC(C)c1nn(C2CCCCC2)c2nc(C(=O)O)cc(-c3ccc4c(c3)CNC4=O)c12 [compound 364, 1-cyclohexyl-4-(1-oxo-2,3-dihydro-1H-isoindol-5-yl)-3-(propan-2-yl)-1H-pyrazolo[3,4-b]pyridine-6-carboxylic acid] | 118.28 | 5.64 | 282.3 | 5.79
8 | CC(C)c1nn(C2CCCOC2)c2nc(C(=O)O)cc(-c3ccc(N4CCC(C#N)CC4)nc3)c12 (stereo not drawn) [compound 365, 4-[6-(4-cyanopiperidin-1-yl)pyridin-3-yl]-1-(oxan-3-yl)-3-(propan-2-yl)-1H-pyrazolo[3,4-b]pyridine-6-carboxylic acid] | 147.55 | 5.59 | 278.05 | 5.81
9 | CC(C)c1nn(C2CCCCC2)c2nc(C(=O)O)cc(-c3cnc(N4CCCC(C#N)C4)nc3)c12 (stereo not drawn) [compound 366, 4-[2-(3-cyanopiperidin-1-yl)pyrimidin-5-yl]-1-cyclohexyl-3-(propan-2-yl)-1H-pyrazolo[3,4-b]pyridine-6-carboxylic acid] | 199.1 | 6.36 | 385.85 | 6.22
10 | O=C(O)c1cc(N2CCC(OCC(=O)N3CCCC3)CC2)c2c(C3CCC3)nn(-c3ccccc3)c2n1 [compound 367, 3-cyclobutyl-4-{4-[2-oxo-2-(pyrrolidin-1-yl)ethoxy]piperidin-1-yl}-1-phenyl-1H-pyrazolo[3,4-b]pyridine-6-carboxylic acid] | 239.55 | 6.00 | 406.35 | 6.17
11 | COCC1CCN(c2cc(C(=O)O)nc3c2c(C(C)C)nn3-c2cccc(N(C)C)c2)CC1 [compound 368, 1-[3-(dimethylamino)phenyl]-4-[4-(methoxymethyl)piperidin-1-yl]-3-(propan-2-yl)-1H-pyrazolo[3,4-b]pyridine-6-carboxylic acid] | 357.3 | 6.28 | 515.5 | 6.54
12 | CC(C)c1nn(-c2ccnc(N3CCCC3)c2)c2nc(C(=O)O)cc(-c3ccc(N4CCC(C#N)CC4)nc3)c12 [compound 369, 4-[6-(4-cyanopiperidin-1-yl)pyridin-3-yl]-3-(propan-2-yl)-1-[2-(pyrrolidin-1-yl)pyridin-4-yl]-1H-pyrazolo[3,4-b]pyridine-6-carboxylic acid] | 251.6 | 6.07 | 389.2 | 6.33
13 | CC(C)c1nn(C2CCCCC2)c2nc(C(=O)O)cc(-c3ccnn3C)c12 [compound 370, 1-cyclohexyl-4-(1-methyl-1H-pyrazol-5-yl)-3-(propan-2-yl)-1H-pyrazolo[3,4-b]pyridine-6-carboxylic acid] | 19.18 | < 5.00 | 133 | < 5.00
14 | CC(C)c1nn(C2CCCCC2)c2nc(C(=O)O)cc(C3=CCN(C(=O)OC(C)(C)C)CC3)c12 [compound 371, 4-[1-(tert-butoxycarbonyl)-1,2,3,6-tetrahydropyridin-4-yl]-1-cyclohexyl-3-(propan-2-yl)-1H-pyrazolo[3,4-b]pyridine-6-carboxylic acid] | 116.35 | 5.88 | 283.6 | 5.96
15 | CC(C)OC1CCN(c2cc(C(=O)O)nc3c2c(C2CCC2)nn3-c2ccccc2)CC1 [compound 372, 3-cyclobutyl-1-phenyl-4-{4-[(propan-2-yl)oxy]piperidin-1-yl}-1H-pyrazolo[3,4-b]pyridine-6-carboxylic acid] | 179 | 6.58 | 388.6 | 6.90
16 | COCC1CCCN(c2cc(C(=O)O)nc3c2c(C2CCC2)nn3-c2ccccc2)C1 (stereo not drawn) [compound 373, 3-cyclobutyl-4-[3-(methoxymethyl)piperidin-1-yl]-1-phenyl-1H-pyrazolo[3,4-b]pyridine-6-carboxylic acid] | 126.3 | 6.33 | 306.9 | 6.52
17 | CC(C)c1nn(C2CCCCC2)c2nc(C(=O)O)cc(-c3cnc(N(C)C4CCN(C(=O)OC(C)(C)C)CC4)nc3)c12 [compound 374, 4-(2-{[1-(tert-butoxycarbonyl)piperidin-4-yl](methyl)amino}pyrimidin-5-yl)-1-cyclohexyl-3-(propan-2-yl)-1H-pyrazolo[3,4-b]pyridine-6-carboxylic acid] | 114.2 | 6.23 | 297.35 | 6.33
18 | Cc1nn(-c2ccccc2)c2nc(C(=O)O)cc(OCC3(C)COC3)c12 [compound 375, 3-methyl-4-[(3-methyloxetan-3-yl)methoxy]-1-phenyl-1H-pyrazolo[3,4-b]pyridine-6-carboxylic acid] | 36.645 | 5.48 | 184.1 | 5.78

Reference: patent US9796711B2, “Substituted pyrazolo[3,4-b]pyridin-6-carboxylic acids and method of use” (AbbVie S.àr.l., priority 2015, dated 2017)
